The source of these data is ChEMBL document CHEMBL5465560, “Selectivity Literature for EUbOPEN Chemogenomic Library” (2024).

One may read the IC50 as the point on the concentration scale where inhibition reaches its midpoint.

Assay [1] deals with Casein kinase I isoform delta (Homo sapiens, UniProt P48730). Kind of assay: Selectivity interaction (Upstate Kinase Profiler service (Millipore)) EUB0000056c CSNK1D. To be noted: at 1 µM.
In assay [2] the test system is Tyrosine-protein kinase ABL1 (Homo sapiens), P00519 [M351T]. To be noted: at 10 µM.
In assay [3] the target is Tyrosine-protein kinase Blk (Homo sapiens) (UniProt P51451). To be noted: at 10 µM.
The target of assay [4] is Mitogen-activated protein kinase kinase kinase 9 (Homo sapiens) (UniProt P80192). Kind of assay: Selectivity interaction (KinomeScan (DiscoverX)) EUB0000092b MAP3K9. To be noted: at 10 µM.
The target of assay [5] is Serine/threonine-protein kinase SIK1 (Homo sapiens) (UniProt P57059). Kind of assay: Selectivity interaction (KinomeScan (DiscoverX)) EUB0001049a SIK1. To be noted: at 1 µM.
The target of assay [6] is Voltage-dependent N-type calcium channel subunit alpha-1B (Homo sapiens) (UniProt Q00975). The assay is described as follows: Selectivity interaction (Eurofins CEREP Diversity Profile (receptors and ion channels)) EUB0000279b CACNA1B. To be noted: at 10 µM.
Assay [7] concerns the target ALK tyrosine kinase receptor (Homo sapiens, UniProt Q9UM73). The assay is described as follows: Selectivity interaction (SelectScreen profiling (Invitrogen)) EUB0000607a ALK. To be noted: at 2 µM.
Assay [8] relates to Epidermal growth factor receptor (Homo sapiens), P00533 [UNDEFINED MUTATION]. Kind of assay: Selectivity interaction (KinomeScan (DiscoverX)) EUB0000607a EGFR. To be noted: at 10 µM.
Assay [9] concerns the target Rho-associated protein kinase 1 (Homo sapiens) (UniProt Q13464). Kind of assay: Selectivity interaction (SelectScreen profiling (Invitrogen)) EUB0000607a ROCK1. To be noted: at 2 µM.
Assay [10] addresses Serine/threonine-protein kinase 26 (Homo sapiens, UniProt Q9P289). Kind of assay: Selectivity interaction (ActivX KiNativ screen (kinase selectivity in THP-1 cell lysates)) EUB0000639a STK26. It counts as subcellular. To be noted: lysate, at 1 µM.
Assay [11] addresses T1, Serine/threonine-protein kinase D3 (Homo sapiens) (UniProt O94806).
T1 sequence (whole entry): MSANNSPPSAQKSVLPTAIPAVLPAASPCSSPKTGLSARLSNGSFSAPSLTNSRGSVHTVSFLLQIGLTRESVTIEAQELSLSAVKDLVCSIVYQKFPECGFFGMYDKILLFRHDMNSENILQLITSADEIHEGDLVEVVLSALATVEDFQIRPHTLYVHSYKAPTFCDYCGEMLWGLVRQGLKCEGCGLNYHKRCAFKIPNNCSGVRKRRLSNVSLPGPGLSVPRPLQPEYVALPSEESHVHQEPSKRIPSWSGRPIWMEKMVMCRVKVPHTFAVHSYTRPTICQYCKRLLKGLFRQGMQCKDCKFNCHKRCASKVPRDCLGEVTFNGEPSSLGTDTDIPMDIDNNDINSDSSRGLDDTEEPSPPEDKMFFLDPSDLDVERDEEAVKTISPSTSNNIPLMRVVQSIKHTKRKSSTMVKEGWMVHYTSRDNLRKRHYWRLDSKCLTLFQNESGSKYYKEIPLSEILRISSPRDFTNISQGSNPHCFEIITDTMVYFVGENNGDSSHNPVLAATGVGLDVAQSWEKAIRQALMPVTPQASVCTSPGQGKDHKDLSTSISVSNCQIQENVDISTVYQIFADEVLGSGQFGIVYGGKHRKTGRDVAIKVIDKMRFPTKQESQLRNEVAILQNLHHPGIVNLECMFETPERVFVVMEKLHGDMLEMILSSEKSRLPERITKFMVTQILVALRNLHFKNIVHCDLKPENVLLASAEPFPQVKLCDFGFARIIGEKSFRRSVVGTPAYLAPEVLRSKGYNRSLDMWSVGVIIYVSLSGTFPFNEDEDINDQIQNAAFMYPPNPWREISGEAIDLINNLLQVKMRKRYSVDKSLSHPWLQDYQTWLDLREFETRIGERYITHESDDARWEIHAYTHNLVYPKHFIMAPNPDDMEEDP
The assay is described as follows: Selectivity interaction (ActivX KiNativ screen (kinase selectivity in THP-1 cell lysates)) EUB0000639a PRKD3. In kind it is subcellular. To be noted: lysate, at 0.04 µM.

Assay [12] deals with Ribosomal protein S6 kinase alpha-3 (Homo sapiens, UniProt P51812). Kind of assay: Selectivity interaction (KinomeScan (DiscoverX)) EUB0000229b RPS6KA3. To be noted: at 10 µM.
The target in assay [13] is TRAF2 and NCK-interacting protein kinase (Homo sapiens) (UniProt Q9UKE5). The assay is described as follows: Selectivity interaction (KinomeScan (DiscoverX)) EUB0000229b TNIK. To be noted: at 10 µM.
Assay [14] deals with Cholecystokinin receptor type A (Homo sapiens, UniProt P32238). Kind of assay: Selectivity interaction (Cholecystokinin A receptor binding assay, human recombinant ) EUB0000877a CCKAR.
Assay [15] has as its target Prostaglandin G/H synthase 2 (Homo sapiens, UniProt P35354). The assay is described as follows: Selectivity interaction (COX-2 assay, human recombinant ) EUB0000877a PTGS2.
Assay [16] deals with T2, Serine/threonine-protein kinase 17B (Homo sapiens) (UniProt O94768).
T2 sequence (whole entry): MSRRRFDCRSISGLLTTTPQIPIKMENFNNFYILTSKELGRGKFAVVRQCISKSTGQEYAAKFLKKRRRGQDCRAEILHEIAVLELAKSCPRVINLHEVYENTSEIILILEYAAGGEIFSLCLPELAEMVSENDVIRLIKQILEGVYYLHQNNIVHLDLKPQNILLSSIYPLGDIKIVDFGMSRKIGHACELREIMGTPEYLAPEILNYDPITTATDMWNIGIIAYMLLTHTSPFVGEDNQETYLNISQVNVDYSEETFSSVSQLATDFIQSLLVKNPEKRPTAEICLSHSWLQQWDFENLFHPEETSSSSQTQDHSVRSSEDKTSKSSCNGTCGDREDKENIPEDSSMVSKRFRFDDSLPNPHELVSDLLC
Kind of assay: Selectivity interaction (KinomeScan (DiscoverX)) EUB0001619a STK17B. To be noted: at 1 µM.

Assay [17] has as its target Tyrosine-protein kinase JAK2 (Homo sapiens, UniProt O60674). Kind of assay: Selectivity interaction (ActivX KiNativ screen (ex vivo kinase selectivity in human PBMCs)) EUB0001619a JAK2. To be noted: PBMC, at 1 µM. It counts as cell-based.
In assay [18] the target is Serine/threonine-protein kinase 25 (Homo sapiens) (UniProt O00506). The assay is described as follows: Selectivity interaction (ActivX KiNativ screen (ex vivo kinase selectivity in human PBMCs)) EUB0001619a STK25. To be noted: PBMC, at 1 µM. In kind it is cell-based.
Serine/threonine-protein kinase 25 (Homo sapiens), sequence (O00506 whole entry, looked up): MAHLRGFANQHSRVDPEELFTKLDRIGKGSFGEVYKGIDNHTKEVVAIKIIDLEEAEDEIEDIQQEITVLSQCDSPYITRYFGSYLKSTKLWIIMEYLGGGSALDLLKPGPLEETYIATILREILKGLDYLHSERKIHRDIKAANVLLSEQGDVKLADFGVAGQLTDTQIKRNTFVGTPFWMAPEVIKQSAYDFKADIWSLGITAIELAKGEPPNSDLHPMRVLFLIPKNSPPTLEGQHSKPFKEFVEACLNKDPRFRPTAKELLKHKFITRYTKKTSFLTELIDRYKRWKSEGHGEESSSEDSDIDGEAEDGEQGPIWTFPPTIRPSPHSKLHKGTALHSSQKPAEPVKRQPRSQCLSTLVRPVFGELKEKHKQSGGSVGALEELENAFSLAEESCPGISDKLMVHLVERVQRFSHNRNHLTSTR

The structures appear in SMILES notation.

Casein kinase I isoform delta, sequence (P48730 whole entry, looked up, canonical isoform): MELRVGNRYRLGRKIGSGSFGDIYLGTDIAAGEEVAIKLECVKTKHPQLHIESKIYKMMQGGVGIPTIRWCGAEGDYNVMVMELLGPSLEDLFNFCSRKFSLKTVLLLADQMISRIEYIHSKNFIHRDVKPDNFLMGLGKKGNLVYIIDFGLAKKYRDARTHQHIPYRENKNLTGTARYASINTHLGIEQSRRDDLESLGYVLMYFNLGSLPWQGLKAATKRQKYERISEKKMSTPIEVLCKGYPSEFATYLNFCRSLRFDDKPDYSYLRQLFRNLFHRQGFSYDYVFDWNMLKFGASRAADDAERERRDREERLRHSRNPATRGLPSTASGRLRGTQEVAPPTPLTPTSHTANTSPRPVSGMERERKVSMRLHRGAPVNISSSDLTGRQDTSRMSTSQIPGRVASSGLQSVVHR
Rho-associated protein kinase 1 (Homo sapiens), sequence (Q13464 2-1354 limits assumed): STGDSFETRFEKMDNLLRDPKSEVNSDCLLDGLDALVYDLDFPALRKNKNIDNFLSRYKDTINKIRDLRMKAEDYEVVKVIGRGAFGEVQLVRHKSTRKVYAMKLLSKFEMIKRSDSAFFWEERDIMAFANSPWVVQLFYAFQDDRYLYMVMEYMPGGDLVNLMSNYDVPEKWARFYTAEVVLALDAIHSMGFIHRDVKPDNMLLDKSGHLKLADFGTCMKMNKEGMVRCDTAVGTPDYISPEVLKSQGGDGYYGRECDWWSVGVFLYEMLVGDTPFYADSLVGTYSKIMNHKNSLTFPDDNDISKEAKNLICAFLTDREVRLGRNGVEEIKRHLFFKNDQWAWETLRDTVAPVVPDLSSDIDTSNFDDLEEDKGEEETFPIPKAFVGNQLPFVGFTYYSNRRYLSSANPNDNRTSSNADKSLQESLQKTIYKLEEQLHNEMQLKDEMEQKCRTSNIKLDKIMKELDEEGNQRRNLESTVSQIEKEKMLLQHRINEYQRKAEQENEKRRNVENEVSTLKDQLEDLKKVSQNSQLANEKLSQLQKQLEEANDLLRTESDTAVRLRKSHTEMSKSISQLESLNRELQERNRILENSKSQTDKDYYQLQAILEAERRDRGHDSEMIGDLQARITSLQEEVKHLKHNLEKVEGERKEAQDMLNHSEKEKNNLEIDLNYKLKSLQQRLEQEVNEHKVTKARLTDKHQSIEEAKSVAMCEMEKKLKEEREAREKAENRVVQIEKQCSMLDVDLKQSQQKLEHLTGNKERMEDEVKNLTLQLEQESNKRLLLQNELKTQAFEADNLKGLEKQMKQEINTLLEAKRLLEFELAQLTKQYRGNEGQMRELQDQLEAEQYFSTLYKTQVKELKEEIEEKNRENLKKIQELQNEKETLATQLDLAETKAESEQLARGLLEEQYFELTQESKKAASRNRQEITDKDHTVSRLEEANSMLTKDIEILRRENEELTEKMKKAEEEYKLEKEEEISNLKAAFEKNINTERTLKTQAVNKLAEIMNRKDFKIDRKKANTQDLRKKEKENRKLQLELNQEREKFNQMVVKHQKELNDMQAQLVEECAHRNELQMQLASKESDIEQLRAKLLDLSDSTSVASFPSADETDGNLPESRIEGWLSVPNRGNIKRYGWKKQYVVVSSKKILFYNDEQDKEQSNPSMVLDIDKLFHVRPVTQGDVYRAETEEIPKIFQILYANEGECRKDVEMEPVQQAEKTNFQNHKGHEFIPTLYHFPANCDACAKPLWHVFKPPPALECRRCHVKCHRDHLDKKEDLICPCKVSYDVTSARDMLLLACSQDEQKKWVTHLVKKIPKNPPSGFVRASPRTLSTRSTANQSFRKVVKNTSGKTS
ALK tyrosine kinase receptor, sequence (Q9UM73 19-1620 limits assumed): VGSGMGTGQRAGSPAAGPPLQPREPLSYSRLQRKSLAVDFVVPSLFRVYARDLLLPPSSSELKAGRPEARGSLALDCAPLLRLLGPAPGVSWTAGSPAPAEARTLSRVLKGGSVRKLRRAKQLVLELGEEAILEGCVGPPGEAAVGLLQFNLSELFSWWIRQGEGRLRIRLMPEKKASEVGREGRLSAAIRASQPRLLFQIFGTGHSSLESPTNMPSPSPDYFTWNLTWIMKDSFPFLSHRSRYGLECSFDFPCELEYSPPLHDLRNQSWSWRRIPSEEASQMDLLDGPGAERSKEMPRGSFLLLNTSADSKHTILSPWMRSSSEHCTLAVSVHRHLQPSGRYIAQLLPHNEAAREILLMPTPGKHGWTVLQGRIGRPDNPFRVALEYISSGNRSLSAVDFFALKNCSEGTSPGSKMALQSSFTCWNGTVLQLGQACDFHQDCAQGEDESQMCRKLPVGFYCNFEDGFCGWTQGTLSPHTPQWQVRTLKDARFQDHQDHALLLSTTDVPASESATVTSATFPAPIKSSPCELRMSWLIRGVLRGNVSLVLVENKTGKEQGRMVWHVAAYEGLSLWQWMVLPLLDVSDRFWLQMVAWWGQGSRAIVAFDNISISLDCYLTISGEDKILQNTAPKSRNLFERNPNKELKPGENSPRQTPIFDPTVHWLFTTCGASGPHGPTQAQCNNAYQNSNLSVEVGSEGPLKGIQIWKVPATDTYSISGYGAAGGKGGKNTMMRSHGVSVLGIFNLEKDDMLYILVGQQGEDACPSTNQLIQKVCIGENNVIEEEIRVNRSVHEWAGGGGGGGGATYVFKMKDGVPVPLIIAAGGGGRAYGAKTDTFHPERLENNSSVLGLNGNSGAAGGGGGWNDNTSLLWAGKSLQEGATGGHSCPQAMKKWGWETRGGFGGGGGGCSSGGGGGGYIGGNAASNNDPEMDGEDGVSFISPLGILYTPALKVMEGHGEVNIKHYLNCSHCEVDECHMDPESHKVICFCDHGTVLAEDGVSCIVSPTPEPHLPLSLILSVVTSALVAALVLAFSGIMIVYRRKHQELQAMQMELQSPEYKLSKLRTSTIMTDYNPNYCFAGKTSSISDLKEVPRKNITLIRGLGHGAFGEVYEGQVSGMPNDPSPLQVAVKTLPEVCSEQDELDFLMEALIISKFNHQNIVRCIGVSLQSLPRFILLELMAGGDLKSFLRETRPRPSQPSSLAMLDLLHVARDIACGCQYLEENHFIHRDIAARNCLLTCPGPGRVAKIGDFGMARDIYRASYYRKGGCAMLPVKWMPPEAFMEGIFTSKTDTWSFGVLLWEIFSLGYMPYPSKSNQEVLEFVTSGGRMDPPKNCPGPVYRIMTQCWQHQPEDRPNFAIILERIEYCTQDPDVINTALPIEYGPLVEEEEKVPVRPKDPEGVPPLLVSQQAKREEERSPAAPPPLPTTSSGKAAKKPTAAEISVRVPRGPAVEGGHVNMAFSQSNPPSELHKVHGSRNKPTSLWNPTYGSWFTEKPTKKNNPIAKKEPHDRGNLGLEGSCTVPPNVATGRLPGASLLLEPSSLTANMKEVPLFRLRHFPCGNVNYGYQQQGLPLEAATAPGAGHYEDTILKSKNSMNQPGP
Prostaglandin G/H synthase 2, sequence (P35354 whole entry): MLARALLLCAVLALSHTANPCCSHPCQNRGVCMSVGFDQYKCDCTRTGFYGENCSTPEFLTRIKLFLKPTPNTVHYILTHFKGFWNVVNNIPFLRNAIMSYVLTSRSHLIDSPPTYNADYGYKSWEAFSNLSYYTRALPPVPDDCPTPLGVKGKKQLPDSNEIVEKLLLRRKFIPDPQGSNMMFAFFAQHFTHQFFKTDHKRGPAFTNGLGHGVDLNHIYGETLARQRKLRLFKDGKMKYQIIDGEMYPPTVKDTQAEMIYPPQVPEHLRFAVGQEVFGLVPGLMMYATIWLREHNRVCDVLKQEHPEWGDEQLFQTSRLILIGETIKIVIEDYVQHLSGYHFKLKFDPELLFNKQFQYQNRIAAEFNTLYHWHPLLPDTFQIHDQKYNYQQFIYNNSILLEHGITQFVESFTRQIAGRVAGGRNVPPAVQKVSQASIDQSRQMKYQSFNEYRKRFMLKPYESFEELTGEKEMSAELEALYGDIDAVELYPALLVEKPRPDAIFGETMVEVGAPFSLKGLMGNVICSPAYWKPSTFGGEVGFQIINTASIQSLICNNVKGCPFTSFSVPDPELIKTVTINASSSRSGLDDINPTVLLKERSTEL
Serine/threonine-protein kinase 26, sequence (Q9P289 2-416 limits assumed): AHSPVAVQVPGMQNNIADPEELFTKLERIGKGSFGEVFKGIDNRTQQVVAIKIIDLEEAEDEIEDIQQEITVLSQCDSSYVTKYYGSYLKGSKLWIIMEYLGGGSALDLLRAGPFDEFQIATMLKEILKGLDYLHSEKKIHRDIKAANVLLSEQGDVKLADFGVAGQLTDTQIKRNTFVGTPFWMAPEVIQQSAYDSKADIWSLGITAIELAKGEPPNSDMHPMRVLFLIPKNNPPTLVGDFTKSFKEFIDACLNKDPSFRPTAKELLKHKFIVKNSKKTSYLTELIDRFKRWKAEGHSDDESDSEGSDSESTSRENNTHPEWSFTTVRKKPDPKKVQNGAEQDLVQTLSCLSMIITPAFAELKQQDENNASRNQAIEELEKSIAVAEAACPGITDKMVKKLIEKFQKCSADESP

For `Cc1ccc(-c2ccc3c(ccc4sc5c(c43)NC[C@@H](C)NC5=O)n2)cn1`, the % of inhibition in [1] was -6%. As for `Cc1cc([C@@H](C)Nc2ccccc2C(=O)O)c2nc(N3CCOCC3)cc(=O)n2c1` [AZD-6482], the % of control in assay [2] was 94%; in assay [3] it was 99%. For the compound `CCC(=O)N1CCN(c2ccc(-n3c(=O)ccc4cnc5ccc(-c6cnc7ccccc7c6)cc5c43)cc2C(F)(F)F)CC1`, the % of control in [4] stood at 84%. As for `COc1cc(Nc2nc(C)cc(-c3cnn4nc(OC)ccc34)n2)cc(C(F)(F)F)c1`, in [5], the % of control is 93%. Regarding `CC(=O)c1cc(-c2ccccc2OCC2CC2)c2ncccn12`, the % of control in [6] was found to be 115%. Turning to `CNC(=O)Nc1ccc(-c2nc(N3CC4CCC(C3)O4)c3cnn(C4CCC5(CC4)OCCO5)c3n2)cc1`, the % of inhibition in assay [7] was 0%; in assay [9], -8%. The compound further displayed a % of control in assay [8] of 55%. For `CC[C@@H]1[C@H](F)C(=O)N[C@@H]1COc1nccc2cc(C(N)=O)c(OC)cc12` [ZIMLOVISERTIB], the % of inhibition in [10] was -9.2%; in assay [11], 3.3%. Turning to `COc1cc(N(C)c2ccnc3ccc(C(F)(F)F)cc23)cc(OC)c1OC`, the % binding in [12] was determined as 71%; in assay [13] it was 69%.

As to `CCC(=O)N1CC[C@H](Nc2ncnc3c2CN(c2cnc(OC)c(C(F)(F)F)c2)CC3)C1` [LENIOLISIB], the concentration for half-maximal inhibition (IC50) in assay [14] and in assay [15] was over 30 µM in each case. In the case of `N#Cc1cccc(-c2c[nH]c3ncnc(N4CCOCC4)c23)c1`, the % of control in [16] was 100%. In addition, the % of inhibition in [17] turned out to be 17%; in assay [18], 65%.
